Our source for the IC50 values is US20220324835A1 (Nurix Therapeutics, Inc., priority 2018, published 2022).

The target in assay [1] is T1, Cbl-b (Homo sapiens, UniProt Q13191). The assay is described as follows: Cbl-b activity assay (Cbl-b inhibition assay), TR-FRET of Cbl-b interaction with UbcH5B-Ub. Format: biochemical. The note with it: assay buffer with 100 mM NaCl, 60 nM Src kinase; read-out: Cbl-b activity IC50. The essentials: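 UbcH5B (C85K) conjugated to N-terminally Bodipy-Fluorescein-labeled ubiquitin served as the fluorescent partner. After compound preincubation, Src kinase (60 nM) with 1 mM ATP and 5 mM MgCl2 (final) was added for 1.5 h, followed by a further 1 h incubation. Some values were obtained with 50 mM NaCl and 30 nM Src.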
Background: In TR-FRET formats the signal depends on donor and acceptor labels being close together.

Assay [2] has as its target T1, Cbl-b. The assay is described as follows: Cbl-b inhibition assay (Cbl-b activity assay, FRET, Biological Example 1; 100 mM NaCl, 60 nM Src kinase). It is filed as biochemical. The note with it: upper bound stated in text lists; read-out: IC50 values in the Cbl-b inhibition assay of Biological Example 1. In a few lines:
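Binding-based Cbl-b activity assay. Src-phosphorylated, N-terminally biotin-Avi-tagged Cbl-b recruits labelled UbcH5B-Ub, and proximity to streptavidin-terbium yields FRET.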

A value given as a limit tells only on which side of the number the result lay.

T1 sequence (Q13191 36-427): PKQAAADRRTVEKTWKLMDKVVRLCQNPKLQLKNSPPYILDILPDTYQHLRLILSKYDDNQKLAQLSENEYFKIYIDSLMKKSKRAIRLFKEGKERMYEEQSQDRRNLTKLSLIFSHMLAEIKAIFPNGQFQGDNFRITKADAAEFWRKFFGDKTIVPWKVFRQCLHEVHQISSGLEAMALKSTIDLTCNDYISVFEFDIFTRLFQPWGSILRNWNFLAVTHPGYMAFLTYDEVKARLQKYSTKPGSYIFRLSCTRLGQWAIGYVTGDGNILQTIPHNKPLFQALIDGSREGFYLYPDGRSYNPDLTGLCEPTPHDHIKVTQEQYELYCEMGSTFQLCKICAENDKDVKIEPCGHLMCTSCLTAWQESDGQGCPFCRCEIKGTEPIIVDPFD

For the compound `Cn1cnnc1CC1(c2cccc(N3Cc4c(cc(CN5CCc6ccncc6C5)cc4C(F)(F)F)C3=O)c2)COC1` [Example 638, 6-((3,4-dihydro-2,7-naphthyridin-2(1H)-yl)methyl)-2-(3-(3-((4-methyl-4H-1,2,4-triazol-3-yl)methyl)oxetan-3-yl)phenyl)-4-(trifluoromethyl)isoindolin-1-one], the IC50 (as a rule, the concentration that inhibits the measured activity by half) on Cbl-b [1] is < 100 nM; on Cbl-b [2] it was ≤ 100 nM.
As for `C[C@@H]1CCN(Cc2cc3c(c(C(F)(F)F)c2)CN(c2cccc(C4(Cc5nncn5C)COC4)c2)C3=O)C[C@@H]1F` [Example 639a, 6-(((3R,4R)-3-fluoro-4-methylpiperidin-1-yl)methyl)-2-(3-(3-((4-methyl-4H-1,2,4-triazol-3-yl)methyl)oxetan-3-yl)phenyl)-4-(trifluoromethyl)isoindolin-1-one], the IC50 at Cbl-b [1] was < 100 nM; on Cbl-b [2], ≤ 100 nM.
With `C[C@H]1CCN(Cc2cc3c(c(C(F)(F)F)c2)CN(c2cccc(C4(Cc5nncn5C)COC4)c2)C3=O)C[C@H]1F` [Example 639b, 6-(((3S,4S)-3-fluoro-4-methylpiperidin-1-yl)methyl)-2-(3-(3-((4-methyl-4H-1,2,4-triazol-3-yl)methyl)oxetan-3-yl)phenyl)-4-(trifluoromethyl)isoindolin-1-one], the half-maximal inhibitory concentration (IC50) on Cbl-b [1] was < 100 nM; at Cbl-b [2] it was ≤ 100 nM.
On to `Cn1cnnc1CC1(c2cccc(N3Cc4c(cc(CN5CC6CC(C5)C6(F)F)cc4C(F)(F)F)C3=O)c2)COC1` [Example 640, 6-((6,6-difluoro-3-azabicyclo[3.1.1]heptan-3-yl)methyl)-2-(3-(3-((4-methyl-4H-1,2,4-triazol-3-yl)methyl)oxetan-3-yl)phenyl)-4-(trifluoromethyl)isoindolin-1-one], for which the half-maximal inhibitory concentration (IC50) was < 100 nM at Cbl-b [1] and ≤ 100 nM at Cbl-b [2].
In the same order, the values of `Cn1cnnc1CC1(c2cccc(N3Cc4c(cc(CN5CCc6cccnc6C5)cc4C(F)(F)F)C3=O)c2)COC1` [Example 645, 6-((5,8-dihydro-1,7-naphthyridin-7(6H)-yl)methyl)-2-(3-(3-((4-methyl-4H-1,2,4-triazol-3-yl)methyl)oxetan-3-yl)phenyl)-4-(trifluoromethyl)isoindolin-1-one] are < 100 nM and ≤ 100 nM.
In the same order, the values of `Cn1cnnc1CC1(c2cccc(N3Cc4c(cc(CN5CCC(F)(F)C(O)C5)cc4C(F)(F)F)C3=O)c2)COC1` (centres unmarked) [Example 647, 6-((4,4-difluoro-3-hydroxypiperidin-1-yl)methyl)-2-(3-(3-((4-methyl-4H-1,2,4-triazol-3-yl)methyl)oxetan-3-yl)phenyl)-4-(trifluoromethyl)isoindolin-1-one] are < 100 nM and ≤ 100 nM.
For `Cn1cnnc1CC1(c2cccc(N3Cc4c(cc(CN5CCc6cnccc6C5)cc4C(F)(F)F)C3=O)c2)COC1` [Example 648, 6-((3,4-dihydro-2,6-naphthyridin-2(1H)-yl)methyl)-2-(3-(3-((4-methyl-4H-1,2,4-triazol-3-yl)methyl)oxetan-3-yl)phenyl)-4-(trifluoromethyl)isoindolin-1-one], in that order: < 100 nM and ≤ 100 nM.
Turning to `Cn1cnnc1CC1(c2cccc(N3Cc4c(cc(CN5Cc6cccc(Cl)c6C5)cc4C(F)(F)F)C3=O)c2)COC1` [Example 657, 6-((4-chloroisoindolin-2-yl)methyl)-2-(3-(3-((4-methyl-4H-1,2,4-triazol-3-yl)methyl)oxetan-3-yl)phenyl)-4-(trifluoromethyl)isoindolin-1-one], the IC50 at Cbl-b [1] was < 100 nM; on Cbl-b [2], ≤ 100 nM.
In the same order, the values of `Cn1cnnc1CC1(c2cccc(N3Cc4c(cc(CN5Cc6cccc(C#N)c6C5)cc4C(F)(F)F)C3=O)c2)COC1` [Example 658, 2-((2-(3-(3-((4-methyl-4H-1,2,4-triazol-3-yl)methyl)oxetan-3-yl)phenyl)-3-oxo-7-(trifluoromethyl)isoindolin-5-yl)methyl)isoindoline-4-carbonitrile] are < 100 nM and ≤ 100 nM.
In the same order, the values of `Cn1cnnc1CC1(c2cccc(N3Cc4c(cc(CN5Cc6ccc(Cl)cc6C5)cc4C(F)(F)F)C3=O)c2)COC1` [Example 659, 6-((5-chloroisoindolin-2-yl)methyl)-2-(3-(3-((4-methyl-4H-1,2,4-triazol-3-yl)methyl)oxetan-3-yl)phenyl)-4-(trifluoromethyl)isoindolin-1-one] are < 100 nM and ≤ 100 nM.
In the same order, the values of `COc1ccc2c(c1)CN(Cc1cc3c(c(C(F)(F)F)c1)CN(c1cccc(C4(Cc5nncn5C)COC4)c1)C3=O)CC2` [Example 661, 6-((7-methoxy-3,4-dihydroisoquinolin-2(1H)-yl)methyl)-2-(3-(3-((4-methyl-4H-1,2,4-triazol-3-yl)methyl)oxetan-3-yl)phenyl)-4-(trifluoromethyl)isoindolin-1-one] are < 100 nM and ≤ 100 nM.
On to `Cn1cnnc1CC1(c2cccc(N3Cc4c(cc(CN5CC[C@@H](c6ccccc6)C5)cc4C(F)(F)F)C3=O)c2)COC1` [Example 662b, (S)-2-(3-(3-((4-methyl-4H-1,2,4-triazol-3-yl)methyl)oxetan-3-yl)phenyl)-6-((3-phenylpyrrolidin-1-yl)methyl)-4-(trifluoromethyl)isoindolin-1-one], for which the concentration for half-maximal inhibition (IC50) was < 100 nM on Cbl-b [1] and ≤ 100 nM at Cbl-b [2].
On to `C[C@@H]1CN(Cc2cc3c(c(C(F)(F)F)c2)CN(c2cccc(C4(Cc5nncn5C)COC4)c2)C3=O)C[C@H](C)O1` [Example 664, 6-(((cis)-2,6-dimethylmorpholino)methyl)-2-(3-(3-((4-methyl-4H-1,2,4-triazol-3-yl)methyl)oxetan-3-yl)phenyl)-4-(trifluoromethyl)isoindolin-1-one], for which the values for the IC50 at Cbl-b [1] and on Cbl-b [2] were < 100 nM and ≤ 100 nM, respectively.
For `Cn1cnnc1CC1(c2cccc(N3Cc4c(cc(CN5CCOC(C)(C)C5)cc4C(F)(F)F)C3=O)c2)COC1` [Example 665, 6-((2,2-dimethylmorpholino)methyl)-2-(3-(3-((4-methyl-4H-1,2,4-triazol-3-yl)methyl)oxetan-3-yl)phenyl)-4-(trifluoromethyl)isoindolin-1-one], in that order: < 100 nM and ≤ 100 nM.
In the same order, the values of `Cn1cnnc1CC1(c2cccc(N3Cc4c(cc(CN5CCOC6(CC6)C5)cc4C(F)(F)F)C3=O)c2)COC1` [Example 666, 6-((4-oxa-7-azaspiro[2.5]octan-7-yl)methyl)-2-(3-(3-((4-methyl-4H-1,2,4-triazol-3-yl)methyl)oxetan-3-yl)phenyl)-4-(trifluoromethyl)isoindolin-1-one] are < 100 nM and ≤ 100 nM.
Consider `COC[C@@H]1CN(Cc2cc3c(c(C(F)(F)F)c2)CN(c2cccc(C4(Cc5nncn5C)COC4)c2)C3=O)CCO1` [Example 667, (S)-6-((2-(methoxymethyl)morpholino)methyl)-2-(3-(3-((4-methyl-4H-1,2,4-triazol-3-yl)methyl)oxetan-3-yl)phenyl)-4-(trifluoromethyl)isoindolin-1-one], for which the IC50 on Cbl-b [1] is < 100 nM; at Cbl-b [2] it was ≤ 100 nM.
In the same order, the values of `CC(c1cc2c(c(C(F)(F)F)c1)CN(c1cccc(C3(C(F)(F)c4nncn4C)COC3)c1)C2=O)N1CC[C@H](F)C1` (stereo partly drawn) [Example 678, 2-(3-(3-(difluoro(4-methyl-4H-1,2,4-triazol-3-yl)methyl)oxetan-3-yl)phenyl)-6-(l-((S)-3-fluoropyrrolidin-1-yl)ethyl)-4-(trifluoromethyl)isoindolin-1-one] are < 100 nM and ≤ 100 nM.
In the same order, the values of `C[C@H](Cc1nncn1C)c1cc(C2=CCOCC2)nc(N2Cc3c(cccc3C(F)(F)F)C2=O)c1` [Example 685, (R)-2-(6-(3,6-dihydro-2H-pyran-4-yl)-4-(1-(4-methyl-4H-1,2,4-triazol-3-yl)propan-2-yl)pyridin-2-yl)-4-(trifluoromethyl)isoindolin-1-one] are 301 to 1000 nM and ≤ 1000 nM.
For `CC(c1nncn1C)C1(c2cccc(N3Cc4c(cc(CN5CCC6(CC6)C5)cc4C(F)(F)F)C3=O)c2)COC1` (centres unmarked) [Example 701, 6-((5-azaspiro[2.4]heptan-5-yl)methyl)-2-(3-(3-(1-(4-methyl-4H-1,2,4-triazol-3-yl)ethyl)oxetan-3-yl)phenyl)-4-(trifluoromethyl)isoindolin-1-one], in that order: 301 to 1000 nM and ≤ 1000 nM.
Regarding `Cc1cc(C(=O)Nc2cccc(C3(Cc4nncn4C(F)F)COC3)c2)nc(C2CC2)n1` [Example 704, 2-cyclopropyl-N-(3-(3-((4-(difluoromethyl)-4H-1,2,4-triazol-3-yl)methyl)-oxetan-3-yl)phenyl)-6-methylpyrimidine-4-carboxamide], the IC50 was < 100 nM at Cbl-b [1] and ≤ 100 nM at Cbl-b [2].
In the same order, the values of `Cn1cnnc1CC1(c2cccc(N3Cc4c(cc(CN5CCc6cc(C#N)ccc6C5)cc4C(F)(F)F)C3=O)c2)COC1` [Example 706, 2-((2-(3-(3-((4-methyl-4H-1,2,4-triazol-3-yl)methyl)oxetan-3-yl)phenyl)-3-oxo-7-(trifluoromethyl)isoindolin-5-yl)methyl)-1,2,3,4-tetrahydroisoquinoline-6-carbonitrile] are < 100 nM and ≤ 100 nM.
For `Cn1cnnc1CC1(c2cccc(N3Cc4c(cc(CN5CCO[C@H](C(F)(F)F)C5)cc4C(F)(F)F)C3=O)c2)COC1` [Example 707, (S)-2-(3-(3-((4-methyl-4H-1,2,4-triazol-3-yl)methyl)oxetan-3-yl)phenyl)-4-(trifluoromethyl)-6-((2-(trifluoromethyl)morpholino)methyl)isoindolin-1-one], in that order: < 100 nM and ≤ 100 nM.
